Data published in PubChem BioAssay (NCI).
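Tested at 5 concentrations; 48 h exposure; 96-well plates; endpoints linearly interpolated, else capped at highest concentration. TGI: total growth inhibition.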

What was measured:
Experiment in all cases: inhibition of tumour cell growth, NCI panel, 48 h
SK-MEL-5 melanoma = tested on: SK-MEL-5 melanoma
NCI/ADR-RES ovarian = tested on: NCI/ADR-RES ovarian
M14 melanoma = tested on: M14 melanoma
RPMI-8226 leukemia = tested on: RPMI-8226 leukemia
SF-295 CNS = tested on: SF-295 CNS
RXF 393 renal = tested on: RXF 393 renal
SF-268 CNS = tested on: SF-268 CNS
SR leukemia = tested on: SR leukemia
SK-MEL-28 melanoma = tested on: SK-MEL-28 melanoma

Row | Structure (SMILES) | TGI (SK-MEL-5 melanoma) [µM] | TGI (NCI/ADR-RES ovarian) [µM] | TGI (M14 melanoma) [µM] | TGI (RPMI-8226 leukemia) [µM] | TGI (SF-295 CNS) [µM] | TGI (RXF 393 renal) [µM] | TGI (SF-268 CNS) [µM] | TGI (SR leukemia) [µM] | TGI (SK-MEL-28 melanoma) [µM]
1 | CC(=O)Nc1nc2c(=O)c3ccccc3sc2s1 | > 100 | > 100 | > 100 | > 100 | > 100 | > 100 | > 100 |  | 
2 | C[C@H]1CCC/C=C/[C@@H]2C[C@H](OC(=O)CN(C)C)C[C@H]2[C@H](O)/C=C/C(=O)O1 | 0.0944 | 0.326 | > 19.9 | > 26.6 | > 100 | 0.155 | > 100 | 3.49 | > 30.9
3 | Cc1cn([C@H]2C[C@@H](N3C(=O)c4ccccc4C3=O)[C@@H](CO[Si](C)(C)C(C)(C)C)O2)c(=O)[nH]c1=O | > 100 | > 100 | > 100 | > 100 | > 100 | 52 | > 100 | > 100 | > 100
4 | Clc1ccc(C(OCn2ccnc2)c2nc3ccccc3[nH]2)c(Cl)c1 (stereo not drawn) | 35.2 | > 100 | > 100 | 92.4 | > 100 |  | > 100 |  | > 100
5 | Cc1nc2ccc(S(=O)(=O)O)cc2c(=O)n1-c1ccc(C(=O)NN2C(=O)C(Cl)C2c2cccs2)cc1 (stereo not drawn) | > 100 | > 100 | 41.4 | > 100 | > 100 | > 100 | 44.3 | > 100 | > 100
6 | COC(=O)/C(=N\N)C(C(=O)C(=O)Nc1cc(Cl)ccc1Cl)c1nc2ccc([N+](=O)[O-])cc2[nH]c1=O (stereo not drawn) | > 100 | > 100 | > 100 | > 100 | > 100 | > 100 | > 100 |  | > 100
7 | COC(=O)C(=O)C(C(=O)C(=O)Nc1cccc(OC)c1)c1nc2ccc(Cl)cc2[nH]c1=O (stereo not drawn) | > 100 | > 100 | > 100 | > 100 | > 100 |  | > 100 |  | > 100
8 | CCCCCC(=O)OC[n+]1cccc(-c2c(COC(=O)NC(C)C)c(COC(=O)NC(C)C)c3n2CCC3)c1 | > 100 | > 100 | > 100 | > 100 | > 100 | > 67.1 | > 100 | > 73.8 | > 100
9 | O=C(O)CCC(NC(=O)c1ccc(Nc2nc3ccc(C(F)(F)F)cc3nc2C(=O)O)cc1)C(=O)O (stereo not drawn) | > 100 | > 100 | > 100 | > 100 | > 100 | > 100 | > 100 | > 100 | 
10 | O=C(OC1OC2COC(=O)c3cc(O)c(O)c(O)c3-c3c(cc(O)c(O)c3O)C(=O)OC3C2OC(=O)[C@@]24CC(=O)[C@@](O)(OC25C(=O)O[C@H]2[C@@H](O)CO[C@@]25O)C2(O)Oc5c(O)c(O)cc(c5C24)C(=O)OC13)c1cc(O)c(O)c(O)c1 (stereo partly drawn) | > 100 | > 100 | > 100 | > 100 | > 100 | > 100 | > 100 | 94.6 | > 100
11 | CC(C)(C)n1c(=O)n2c(-c3ccccc3)c(-c3ccccc3)n2c1=O | > 100 | > 100 | > 100 | 61.1 | > 100 | > 100 | > 100 |  | > 100
12 | CC1OC(OC2C(OC(=O)[C@]34CCC(C)(C)C[C@H]3C3=CC[C@@H]5[C@@]6(C)CC[C@H](OC7OC(CO)C(O)C(O)C7OC7OC(CO)C(O)C(O)C7O)C(C)(C)[C@@H]6CC[C@@]5(C)[C@]3(C)CC4)OCC(O)C2O)C(O)C(O)C1OC1OCC(O)C(O)C1O (stereo partly drawn) | 28 | 29.1 | 16.7 | 31.6 | 25.7 | 25.4 | 21.4 | 23.8 | 6.04
13 | C=CCN(c1cc(O)c2c(c(C)cn2S(=O)(=O)c2ccccc2)c1[N+](=O)[O-])S(C)(=O)=O | > 100 | > 100 | > 100 | > 100 | > 100 | > 100 | > 100 |  | > 100
14 | Cc1ccc2c(=O)cc(-c3cc(C)sc3C)[nH]c2n1 | 16.4 | 5.29 | > 100 | > 20.5 | 7.54 | > 24.4 | > 73.4 | > 86.3 | > 100
15 | c1ccc(C(NC2=NCCO2)C2CC2)cc1 (stereo not drawn) | > 100 | > 100 | > 100 | > 100 | > 100 | > 100 | > 100 | > 100 | > 100
16 | Cc1nc2ccc(N=Nc3c(C)noc3C)cc2[nH]1 | 29.8 | > 100 | > 100 | 92.4 | > 100 | 52.4 | > 100 | 69.9 | > 100
17 | N/C(CCSCCSCC/C(N)=N\O)=N\O | > 100 | > 100 | > 100 | > 100 |  | > 100 | > 100 | > 100 | > 100
18 | Nc1ccc2c(=S)c3ccccc3[nH]c2c1 | > 100 | > 100 | > 83.3 | > 100 | > 100 | 98.9 | > 100 | > 100 | > 100
19 | CC(=O)Oc1ccc(-c2nnc(-c3ccc(OC(C)=O)cc3)nn2)cc1 | > 100 | > 100 | > 100 | > 100 | > 100 | > 100 | > 100 | 88.1 | > 100
20 | O=C1/C(=C/c2ccc(Br)s2)NC(=S)N1CN1CCCCC1 | 23.8 | 98.2 |  | 50.8 | 91.2 | 60.7 | > 100 | 47.1 | > 100
21 | C=C1CC[C@@H]2[C@](C)(COC(=O)CCC(=O)OC)CCC[C@@]2(C)[C@@H]1CCC1=CC(=O)OC1 | > 100 | > 100 | > 100 | 34.2 | > 100 |  |  | 51.4 | > 100
22 | Cc1cccc(C)c1NC(=O)C(=O)CC(=O)c1sc(Nc2c(C)cccc2C)nc1C |  | > 100 | > 100 | > 100 | > 100 | > 100 | > 100 |  | 
23 | CCCCCCCCCCCCCCCCOP(=O)([O-])OCC[N+](C)(C)C1CC(C)(C)N(O)C(C)(C)C1 | > 100 | > 100 | > 100 |  | > 100 | > 100 | > 100 | > 100 | 
